The record followed here is patent publication US20230002334A1, “TRPM8 MODULATORS” (Givaudan SA, priority 2019, published 2023).

The target in the assay is T1, hTRPM8 (Homo sapiens, UniProt Q7Z2W7).
T1 construct: expressed in transfected cells
Put plainly: Assay on TRPM8 modulators: calcium imaging (Fluo-4, Flexstation) in HEK293 cell line stably expressing hTRPM8. Type of assay: cell-based. The following applies: HEK293 cells stably expressing hTRPM8, calcium influx, sigmoidal dose-response fit; read-out: EC50. On the procedure:
A HEK293 cell line stably expressing hTRPM8 was generated according to Klein et al., (Chem. Senses 36: 649-658, 2011) and receptor activation was monitored by calcium imaging in a Flexstation. For Ca-imaging assays of TRPM8 channel activation, cells were seeded on day 0 at a density of 12000 cells per well in Dulbecco's modified Eagle medium (DMEM) containing 9% foetal bovine serum in black, clear bottom 96-well plates that had been coated with 0.001% polyethyleneimine (molecular weight=60 000, Acros Organics). On day 2, agonists were evaluated via calcium imaging using Fluo-4. Briefly, growth medium was discarded, and the cells were incubated in the dark for 1 h at 37° C. in 50 μL loading buffer consisting of 2.7 μM Fluo-4 AM (Invitrogen) and […] probenecid (Sigma-Aldrich) in DMEM (without serum). After incubation, the plates were washed five times with 100 μL of assay buffer (in mM: 130 NaCl, 5 KCl, 10 HEPES, 2 CaCl2, and 10 glucose, pH7.4.) and further incubated in the dark at room temperature for 30 min. The cells were then washed five times with 100 μL assay buffer and then calcium influx to serial dilutions of inventive compounds were measured in a Flexstation 3 (Molecular Devices). Receptor activation was initiated following addition of 20 μl of a 10-fold concentrated ligand stock solution, which is also prepared in assay buffer. Fluorescence was continuously monitored for 15 seconds prior to ligand addition and for 105 seconds after ligand addition, for a total of 120 seconds. Maximal receptor activation in relation to solvent control and relative to 31.6 μM menthol is determined. Data from serial dilutions were processed with a KNIME workflow to fit a sigmoidal dose-response curve and to extrapolate EC50 values.

T1 sequence (Q7Z2W7 whole entry): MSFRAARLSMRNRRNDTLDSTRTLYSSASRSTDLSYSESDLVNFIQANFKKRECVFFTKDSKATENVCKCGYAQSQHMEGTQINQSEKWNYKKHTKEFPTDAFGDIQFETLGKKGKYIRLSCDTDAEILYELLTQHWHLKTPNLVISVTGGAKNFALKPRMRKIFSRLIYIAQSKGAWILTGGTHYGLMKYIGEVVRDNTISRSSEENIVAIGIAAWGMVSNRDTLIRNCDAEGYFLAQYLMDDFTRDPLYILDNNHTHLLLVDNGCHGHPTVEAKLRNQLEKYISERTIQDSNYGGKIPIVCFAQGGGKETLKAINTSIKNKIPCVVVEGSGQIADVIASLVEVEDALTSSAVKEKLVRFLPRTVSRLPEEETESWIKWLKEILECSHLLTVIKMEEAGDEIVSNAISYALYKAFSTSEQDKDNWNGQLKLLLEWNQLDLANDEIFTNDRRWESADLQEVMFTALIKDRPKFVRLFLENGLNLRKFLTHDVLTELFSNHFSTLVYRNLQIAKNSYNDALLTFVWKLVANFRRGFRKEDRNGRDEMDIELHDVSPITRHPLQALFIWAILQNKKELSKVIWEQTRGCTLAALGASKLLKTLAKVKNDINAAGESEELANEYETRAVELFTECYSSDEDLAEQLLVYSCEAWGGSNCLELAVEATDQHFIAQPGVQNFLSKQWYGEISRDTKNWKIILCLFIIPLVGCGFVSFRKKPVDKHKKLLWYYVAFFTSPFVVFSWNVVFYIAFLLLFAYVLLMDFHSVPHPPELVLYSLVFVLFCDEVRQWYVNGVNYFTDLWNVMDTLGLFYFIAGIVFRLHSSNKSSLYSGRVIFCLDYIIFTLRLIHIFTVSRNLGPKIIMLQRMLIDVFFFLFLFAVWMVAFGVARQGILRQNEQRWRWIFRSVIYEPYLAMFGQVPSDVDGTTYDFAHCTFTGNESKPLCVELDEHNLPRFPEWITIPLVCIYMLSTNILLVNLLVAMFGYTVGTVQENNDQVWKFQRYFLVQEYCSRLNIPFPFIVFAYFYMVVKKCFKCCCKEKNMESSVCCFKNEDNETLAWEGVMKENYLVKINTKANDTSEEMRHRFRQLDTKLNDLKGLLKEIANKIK

By EC50 is commonly meant the concentration needed to bring the measured effect to its halfway point. On to `CCN1OC(C)(C)[C@@H]2C[C@](C)(CC=C(C)C)C[C@H](C)[C@H]21` (racemic) [Compound 53, rac-(3aR,5R,7S,7aR)-1-ethyl-3,3,5,7-tetramethyl-5-(3-methylbut-2-en-1-yl)octahydrobenzo[c]isoxazole], for which the half-maximal effective concentration (EC50) was in the range of 0.05 to 0.3 µM. Regarding `CCN1OC(C)(C)[C@@H]2C[C@](C)(c3ccccc3C)C[C@H](C)[C@H]21` (racemic) [Compound 54, rac-(3aR,5R,7S,7aR)-1-ethyl-3,3,5,7-tetramethyl-5-(o-tolyl)octahydrobenzo[c]isoxazole], the EC50 was less than 0.05 µM. Next, `CCN1OC(C)(C)[C@@H]2C[C@](C)(c3ccccc3)C[C@H](C)[C@H]21` (racemic) [Compound 55, rac-(3aR,5R,7S,7aR)-1-ethyl-3,3,5,7-tetramethyl-5-phenyloctahydrobenzo[c]isoxazole]: 0.05 to 0.3 µM; `CCN1OC(C)(C)[C@@H]2C[C@H](C)C[C@H](C)[C@H]21` (racemic) [Compound 56, rac-(3aR,5R,7S,7aR)-1-ethyl-3,3,5,7-tetramethyloctahydrobenzo[c]isoxazole]: 1 to 35 µM. For `CCN1OC(C)(C)[C@@H]2C[C@H](c3ccccc3OC)C[C@H](C)[C@H]21` (racemic) [Compound 57, rac-(3aR,5R,7S,7aR)-1-ethyl-5-(2-methoxyphenyl)-3,3,7-trimethyloctahydrobenzo[c]isoxazole], the 50% effective concentration (EC50) was less than 0.05 µM.

As for `CC(C)=CC[C@@]1(C)C[C@@H]2[C@@H]([C@@H](C)C1)N(C(C)C)OC2(C)C` (racemic) [Compound 58, rac-(3aR,5R,7S,7aR)-1-isopropyl-3,3,5,7-tetramethyl-5-(3-methylbut-2-en-1-yl)octahydrobenzo[c]isoxazole], the concentration giving a half-maximal response (EC50) fell in the range of 0.05 to 0.3 µM. With `Cc1ccccc1[C@@]1(C)C[C@@H]2[C@@H]([C@@H](C)C1)N(C(C)C)OC2(C)C` (racemic) [Compound 59, rac-(3aR,5R,7S,7aR)-1-isopropyl-3,3,5,7-tetramethyl-5-(o-tolyl)octahydrobenzo[c]isoxazole] the figure was 0.05 to 0.3 µM; with `CC(C)N1OC(C)(C)[C@@H]2C[C@](C)(c3ccccc3)C[C@H](C)[C@H]21` (racemic) [Compound 60, rac-(3aR,5R,7S,7aR)-1-isopropyl-3,3,5,7-tetramethyl-5-phenyloctahydrobenzo[c]isoxazole], 0.05 to 0.3 µM; with `CCC[C@@]1(C)C[C@@H]2[C@@H]([C@@H](C)C1)N(C(C)C)OC2(C)C` (racemic) [Compound 61, rac-(3aR,5R,7S,7aR)-1-isopropyl-3,3,5,7-tetramethyl-5-propyloctahydrobenzo[c]isoxazole], 1 to 35 µM. Turning to `CC(C)=CC[C@H]1C[C@@H]2[C@@H]([C@@H](C)C1)N(C(C)C)OC2(C)C` (racemic) [Compound 62, rac-(3aR,5R,7S,7aR)-1-isopropyl-3,3,7-trimethyl-5-(3-methylbut-2-en-1-yl)octahydrobenzo[c]isoxazole], the concentration giving a half-maximal response (EC50) is 0.3 to 1 µM. For `Cc1ccccc1[C@H]1C[C@@H]2[C@@H]([C@@H](C)C1)N(C(C)C)OC2(C)C` (racemic) [Compound 63, rac-(3aR,5R,7S,7aR)-1-isopropyl-3,3,7-trimethyl-5-(o-tolyl)octahydrobenzo[c]isoxazole], the concentration for a half-maximal effect (EC50) fell in the range of 0.3 to 1 µM.

As to `COc1ccccc1[C@@]1(C)C[C@@H]2[C@@H]([C@@H](C)C1)N(C(C)C)OC2(C)C` (racemic) [Compound 65, rac-(3aR,5R,7S,7aR)-1-isopropyl-5-(2-methoxyphenyl)-3,3,5,7-tetramethyloctahydrobenzo[c]isoxazole], the concentration giving a half-maximal response (EC50) lay within 0.05 to 0.3 µM.

On to `COc1ccc([C@@]2(C)C[C@@H]3[C@@H]([C@@H](C)C2)N(C(C)C)OC3(C)C)cc1` (racemic) [Compound 67, rac-(3aR,5R,7S,7aR)-1-isopropyl-5-(4-methoxyphenyl)-3,3,5,7-tetramethyloctahydrobenzo[c]isoxazole], for which the concentration for a half-maximal effect (EC50) fell in the range of 1 to 35 µM. With `COc1cccc([C@@]2(C)C[C@@H]3[C@@H]([C@@H](C)C2)N(C(C)C)OC3(C)C)n1` (racemic) [Compound 68, rac-(3aR,5R,7S,7aR)-1-isopropyl-5-(6-methoxypyridin-2-yl)-3,3,5,7-tetramethyloctahydrobenzo[c]isoxazole] the figure was 0.3 to 1 µM. As for `Cc1cccc([C@@]2(C)C[C@@H]3[C@@H]([C@@H](C)C2)N(C)OC3(C)C)c1C` (racemic) [Compound 69, rac-(3aR,5R,7S,7aR)-5-(2,3-dimethylphenyl)-1,3,3,5,7-pentamethyloctahydrobenzo[c]isoxazole], the EC50 lay in the range of 0.05 to 0.3 µM. Next, `C[C@H]1C[C@@](C)(c2ccc(F)cc2F)C[C@@H]2[C@@H]1N(C)OC2(C)C` (racemic) [Compound 70, rac-(3aR,5R,7S,7aR)-5-(2,4-difluorophenyl)-1,3,3,5,7-pentamethyloctahydrobenzo[c]isoxazole]: 0.05 to 0.3 µM. Turning to `Cc1ccc([C@@]2(C)C[C@@H]3[C@@H]([C@@H](C)C2)N(C)OC3(C)C)c(C)c1` (racemic) [Compound 71, rac-(3aR,5R,7S,7aR)-5-(2,4-dimethylphenyl)-1,3,3,5,7-pentamethyloctahydrobenzo[c]isoxazole], the 50% effective concentration (EC50) was 0.05 to 0.3 µM.

`Cc1ccc([C@H]2C[C@@H]3[C@@H]([C@@H](C)C2)N(C)OC3(C)C)c(C)c1` (racemic) [Compound 72, rac-(3aR,5R,7S,7aR)-5-(2,4-dimethylphenyl)-1,3,3,7-tetramethyloctahydrobenzo[c]isoxazole]: the EC50 was in the range of 0.05 to 0.3 µM. As for `C[C@H]1C[C@@](C)(c2cc(F)ccc2F)C[C@@H]2[C@@H]1N(C)OC2(C)C` (racemic) [Compound 73, rac-(3aR,5R,7S,7aR)-5-(2,5-difluorophenyl)-1,3,3,5,7-pentamethyloctahydrobenzo[c]isoxazole], the EC50 lay in the range of 0.05 to 0.3 µM.

Take `Cc1ccc(C)c([C@@]2(C)C[C@@H]3[C@@H]([C@@H](C)C2)N(C)OC3(C)C)c1` (racemic) [Compound 74, rac-(3aR,5R,7S,7aR)-5-(2,5-dimethylphenyl)-1,3,3,5,7-pentamethyloctahydrobenzo[c]isoxazole]: the EC50 is less than 0.05 µM.

Regarding `Cc1ccc(C)c([C@H]2C[C@@H]3[C@@H]([C@@H](C)C2)N(C)OC3(C)C)c1` (racemic) [Compound 75, rac-(3aR,5R,7S,7aR)-5-(2,5-dimethylphenyl)-1,3,3,7-tetramethyloctahydrobenzo[c]isoxazole], the concentration for a half-maximal effect (EC50) fell in the range of 0.3 to 1 µM. Next, `Cc1cccc(C)c1[C@@]1(C)C[C@@H]2[C@@H]([C@@H](C)C1)N(C)OC2(C)C` (racemic) [Compound 76, rac-(3aR,5R,7S,7aR)-5-(2,6-dimethylphenyl)-1,3,3,5,7-pentamethyloctahydrobenzo[c]isoxazole]: 0.3 to 1 µM; `CCOc1ccccc1[C@@]1(C)C[C@@H]2[C@@H]([C@@H](C)C1)N(C)OC2(C)C` (racemic) [Compound 77, rac-(3aR,5R,7S,7aR)-5-(2-ethoxyphenyl)-1,3,3,5,7-pentamethyloctahydrobenzo[c]isoxazole]: 0.3 to 1 µM. With `CCc1ccccc1[C@@]1(C)C[C@@H]2[C@@H]([C@@H](C)C1)N(C)OC2(C)C` (racemic) [Compound 78, rac-(3aR,5R,7S,7aR)-5-(2-ethylphenyl)-1,3,3,5,7-pentamethyloctahydrobenzo[c]isoxazole] the figure was 0.05 to 0.3 µM. With `CCc1ccccc1[C@H]1C[C@@H]2[C@@H]([C@@H](C)C1)N(C)OC2(C)C` (racemic) [Compound 79, rac-(3aR,5R,7S,7aR)-5-(2-ethylphenyl)-1,3,3,7-tetramethyloctahydrobenzo[c]isoxazole] the figure was 1 to 35 µM.
